Results from BindingDB's records for patent US10323000 (Merck Patent, 2019).

Target: T1, P2X purinoceptor 7 (Homo sapiens, UniProt Q99572)
T1 sequence (Q99572 whole entry): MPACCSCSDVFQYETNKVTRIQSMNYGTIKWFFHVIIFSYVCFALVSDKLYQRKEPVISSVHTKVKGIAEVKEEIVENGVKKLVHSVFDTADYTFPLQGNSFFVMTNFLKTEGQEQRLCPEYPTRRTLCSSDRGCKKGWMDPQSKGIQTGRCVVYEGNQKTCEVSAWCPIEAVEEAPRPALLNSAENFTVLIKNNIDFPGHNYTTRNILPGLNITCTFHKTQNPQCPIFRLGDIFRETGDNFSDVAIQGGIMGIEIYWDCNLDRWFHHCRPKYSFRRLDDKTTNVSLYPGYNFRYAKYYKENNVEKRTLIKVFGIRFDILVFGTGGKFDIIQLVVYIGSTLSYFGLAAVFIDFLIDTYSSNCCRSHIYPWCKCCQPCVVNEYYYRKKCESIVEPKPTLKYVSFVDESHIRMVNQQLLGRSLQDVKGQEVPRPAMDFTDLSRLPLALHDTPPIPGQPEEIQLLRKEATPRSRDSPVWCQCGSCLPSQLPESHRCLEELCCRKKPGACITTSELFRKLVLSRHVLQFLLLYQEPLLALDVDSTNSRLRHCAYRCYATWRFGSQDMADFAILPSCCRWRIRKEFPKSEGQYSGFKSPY
Assay: Pore Permeation Assay
Description: Agonist-induced pore formation was determined by measuring cellular uptake of YO PRO fluorescence dye in HEK293 transfected with human P2X7 receptor. A HEK293 cell over expressing human P2X7 was harvested using HQTase reagent to detach the cells from T75 cm flask. The harvested cells are centrifuged @1200 rpm for 5 min at room temperature. The viability of cells was determined by Trypan blue dye and the cells are plated @10,000 cell/well in 50 ul volume in a 384W BD Poly lysine coated plate and incubated overnight at 37 C. […] The plate was centrifuged at 1000 rpm for 5 seconds and incubated at room temperature for 30 minutes. The uptake of YO PRO dye into the cells was measured using Envision Fluorescence plate reader instrument (Perkin Elmer).

Compound: CCN(C)C(=O)Cn1cc(C(=O)NCC2CCC(F)(F)CC2)c2c(Cl)cccc21 [US10323000, Compound 163]
- IC50: < 10 nM
